In patent publication US20250129430A1, “HIGH ATP-AFFINITY PROTEIN AS THERAPEUTIC TARGET FOR INTRACTABLE CANCER MOLECULAR SUBTYPES AND INHIBITOR THEREOF” (VeraVerse Co., Ltd., priority 2021, published 2025):

What was measured:
Type in all cases: cell-based, human
AGS = test: Cell viability drug screen, 12-point dose-response AUC; conditions: 72 hours; for area under the viability curve (AUC), normalized: AGS cells, 12-point dose-response
Outline: (§1)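 Dose-response AUC reflects 72 h drug exposure of gastric cancer cells in a 12-point, half-log format, with viability read by luminescence and normalized to DMSO (0.5%).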

Hs746T = test: as above; conditions: 72 hours; for area under the viability curve (AUC), normalized: Hs746T cells, 12-point dose-response
Outline: (§2)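 Viability: luminescence (Glo kit, 15 min RT), normalized to 0.5% DMSO vehicle. Dosing: half-log, 12 concentrations, 72 h. Cells: 5×10^3/well, treated 24 h after plating. Value: trapezoidal AUC, mean of repeats.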

KATO3 = test: as above; conditions: KATO3 cells, 72 hours; for area under the viability curve (AUC), normalized: 12-point dose-response
Outline: as §2

MKN1 = test: as above; conditions: MKN1 cells, 72 hours; for area under the viability curve (AUC), normalized: 12-point dose-response
Outline: as §2

MKN28 = test: as above; conditions: MKN28 cells, 72 hours; for area under the viability curve (AUC), normalized: 12-point dose-response
Outline: as §2

MKN45 = test: as above; conditions: 72 hours; for area under the viability curve (AUC), normalized: MKN45 cells, 12-point dose-response
Outline: as §1

MKN74 = test: as above; conditions: MKN74 cells, 72 hours; for area under the viability curve (AUC), normalized: 12-point dose-response
Outline: as §1

NCC19 = test: as above; conditions: NCC19 cells, 72 hours; for area under the viability curve (AUC), normalized: 12-point dose-response
Outline: as §2

NCC20 = test: as above; conditions: NCC20 cells, 72 hours; for area under the viability curve (AUC), normalized: 12-point dose-response
Outline: as §2

NCC24 = test: as above; conditions: NCC24 cells, 72 hours; for area under the viability curve (AUC), normalized: 12-point dose-response
Outline: as §2

NCC59 = test: as above; conditions: NCC59 cells, 72 hours; for area under the viability curve (AUC), normalized: 12-point dose-response
Outline: as §2

NCI_N87 = test: as above; conditions: NCI_N87 cells, 72 hours; for area under the viability curve (AUC), normalized: 12-point dose-response
Outline: as §2

OCUM1 = test: as above; conditions: OCUM1 cells, 72 hours; for area under the viability curve (AUC), normalized: 12-point dose-response
Outline: as §2

SK4 = test: as above; conditions: 72 hours; for area under the viability curve (AUC), normalized: SK4 cells, 12-point dose-response
Outline: as §2

SNU16 = test: as above; conditions: SNU16 cells, 72 hours; for area under the viability curve (AUC), normalized: 12-point dose-response
Outline: as §2

SNU1750 = test: as above; conditions: 72 hours; for area under the viability curve (AUC), normalized: SNU1750 cells, 12-point dose-response
Outline: as §2

SNU1967 = test: as above; conditions: SNU1967 cells, 72 hours; for area under the viability curve (AUC), normalized: 12-point dose-response
Outline: as §2

SNU1 = test: as above; conditions: SNU1 cells, 72 hours; for area under the viability curve (AUC), normalized: 12-point dose-response
Outline: as §2

SNU216 = test: as above; conditions: 72 hours; for area under the viability curve (AUC), normalized: SNU216 cells, 12-point dose-response
Outline: as §1

SNU484 = test: as above; conditions: 72 hours; for area under the viability curve (AUC), normalized: SNU484 cells, 12-point dose-response
Outline: as §2

SNU601 = test: as above; conditions: SNU601 cells, 72 hours; for area under the viability curve (AUC), normalized: 12-point dose-response
Outline: as §2

SNU620 = test: as above; conditions: SNU620 cells, 72 hours; for area under the viability curve (AUC), normalized: 12-point dose-response
Outline: as §2

SNU638 = test: as above; conditions: SNU638 cells, 72 hours; for area under the viability curve (AUC), normalized: 12-point dose-response
Outline: as §2

SNU668 = test: as above; conditions: 72 hours; for area under the viability curve (AUC), normalized: SNU668 cells, 12-point dose-response
Outline: as §2

SNU719 = test: as above; conditions: SNU719 cells, 72 hours; for area under the viability curve (AUC), normalized: 12-point dose-response
Outline: as §1

YCC11 = test: as above; conditions: 72 hours; for area under the viability curve (AUC), normalized: YCC11 cells, 12-point dose-response
Outline: as §2

YCC2 = test: as above; conditions: YCC2 cells, 72 hours; for area under the viability curve (AUC), normalized: 12-point dose-response
Outline: as §2

YCC3 = test: as above; conditions: YCC3 cells, 72 hours; for area under the viability curve (AUC), normalized: 12-point dose-response
Outline: as §2

FU97 = test: as above; design: Average Area Under the Viability Curve (AUC), AUC norm value: scale not given here; conditions: FU97 cells, 72 hours; for area under the viability curve (AUC), normalized: 12-point dose-response
Outline: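 Trapezoidal AUC of a 12-point, DMSO-normalized dose-response curve. Luminescent viability was measured after 72 h of exposure at 37° C to half-log serial dilutions (0.5% DMSO control), dosed 24 h after plating FU97 cells at 5×10^3 per well.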

[1] = tested on: non-SEM-type gastric cancer cell line; test: Cell viability drug screen, AUC summary over non-SEM-type lines; conditions: in the non-SEM-type gastric cancer cell line

Nc1cc(C(F)(F)F)c(-c2cc(N3CCOCC3)nc(N3CCOCC3)n2)cn1 [BKM120]
area under the viability curve (AUC), normalized (AGS): −1.094
area under the viability curve (AUC), normalized (Hs746T): 0
area under the viability curve (AUC), normalized (KATO3): 2.449
area under the viability curve (AUC), normalized (MKN1): −0.1827
area under the viability curve (AUC), normalized (MKN28): −0.0925
area under the viability curve (AUC), normalized (MKN45): 1.074
area under the viability curve (AUC), normalized (MKN74): −0.05182
area under the viability curve (AUC), normalized (NCC19): 0.6866
area under the viability curve (AUC), normalized (NCC20): −0.07502
area under the viability curve (AUC), normalized (NCC24): −0.4391
area under the viability curve (AUC), normalized (NCC59): 1.23
area under the viability curve (AUC), normalized (NCI_N87): −0.38
area under the viability curve (AUC), normalized (OCUM1): 0.7561
area under the viability curve (AUC), normalized (SK4): −1.247
area under the viability curve (AUC), normalized (SNU16): −0.3076
area under the viability curve (AUC), normalized (SNU1750): −0.4392
area under the viability curve (AUC), normalized (SNU1967): 0.676
area under the viability curve (AUC), normalized (SNU1): 0.2556
area under the viability curve (AUC), normalized (SNU216): 0.1342
area under the viability curve (AUC), normalized (SNU484): −0.475
area under the viability curve (AUC), normalized (SNU601): 0.9711
area under the viability curve (AUC), normalized (SNU620): −0.08823
area under the viability curve (AUC), normalized (SNU638): 0.01503
area under the viability curve (AUC), normalized (SNU668): 0.2688
area under the viability curve (AUC), normalized (SNU719): 3.314
area under the viability curve (AUC), normalized (YCC11): −1.147
area under the viability curve (AUC), normalized (YCC2): 0.7169
area under the viability curve (AUC), normalized (YCC3): 1.085
area under the viability curve (AUC), normalized (FU97): −1.3007
AUC value [1]: high

CN(C)c1ccc(C(=C2C=CC(=[N+](C)C)C=C2)c2ccc(N(C)C)cc2)cc1 [Crystal Violet, Crystal violet]
area under the viability curve (AUC), normalized (AGS): −0.4769
area under the viability curve (AUC), normalized (Hs746T): −0.2085
area under the viability curve (AUC), normalized (KATO3): 0.911
area under the viability curve (AUC), normalized (MKN1): 0.4211
area under the viability curve (AUC), normalized (MKN28): 0
area under the viability curve (AUC), normalized (MKN45): 1.101
area under the viability curve (AUC), normalized (MKN74): −0.5721
area under the viability curve (AUC), normalized (NCC19): 0.4873
area under the viability curve (AUC), normalized (NCC20): −1.031
area under the viability curve (AUC), normalized (NCC24): 0.2743
area under the viability curve (AUC), normalized (NCC59): 0.5098
area under the viability curve (AUC), normalized (NCI_N87): 0.4907
area under the viability curve (AUC), normalized (OCUM1): 0.7741
area under the viability curve (AUC), normalized (SK4): −1.015
area under the viability curve (AUC), normalized (SNU16): −0.5668
area under the viability curve (AUC), normalized (SNU1750): −0.5514
area under the viability curve (AUC), normalized (SNU1967): 0.3458
area under the viability curve (AUC), normalized (SNU1): −0.5355
area under the viability curve (AUC), normalized (SNU216): −0.02818
area under the viability curve (AUC), normalized (SNU484): −0.7108
area under the viability curve (AUC), normalized (SNU601): 0.9442
area under the viability curve (AUC), normalized (SNU620): −0.7672
area under the viability curve (AUC), normalized (SNU638): −0.4956
area under the viability curve (AUC), normalized (SNU668): 0.1937
area under the viability curve (AUC), normalized (SNU719): 3.076
area under the viability curve (AUC), normalized (YCC11): −0.8996
area under the viability curve (AUC), normalized (YCC2): 0.4289
area under the viability curve (AUC), normalized (YCC3): 0.9437
area under the viability curve (AUC), normalized (FU97): −0.985
AUC value [1]: high

O=C(CCCCCCC(=O)Nc1ccccc1)NO [Vorinostat (SAHA), Vorinostat]
Average Area Under the Viability Curve (AUC), AUC norm value (AGS; AGS cells (non-SEM subtype)): −0.5947
Average Area Under the Viability Curve (AUC), AUC norm value (Hs746T; Hs746T cells (SEM subtype)): −0.04774
Average Area Under the Viability Curve (AUC), AUC norm value (KATO3): 0
Average Area Under the Viability Curve (AUC), AUC norm value (MKN1): 0.4282
Average Area Under the Viability Curve (AUC), AUC norm value (MKN28): −0.08142
Average Area Under the Viability Curve (AUC), AUC norm value (MKN45; MKN45 cells (non-SEM subtype)): 2.416
Average Area Under the Viability Curve (AUC), AUC norm value (MKN74): −0.07666
Average Area Under the Viability Curve (AUC), AUC norm value (NCC19): 0.2993
Average Area Under the Viability Curve (AUC), AUC norm value (NCC20): −0.9328
Average Area Under the Viability Curve (AUC), AUC norm value (NCC24): −0.3421
Average Area Under the Viability Curve (AUC), AUC norm value (NCC59): 1.01
Average Area Under the Viability Curve (AUC), AUC norm value (NCI_N87): 0.8986
Average Area Under the Viability Curve (AUC), AUC norm value (OCUM1): −0.5166
Average Area Under the Viability Curve (AUC), AUC norm value (SK4; SK4 cells (SEM subtype)): 0.6434
Average Area Under the Viability Curve (AUC), AUC norm value (SNU16): −0.7875
Average Area Under the Viability Curve (AUC), AUC norm value (SNU1750; SNU1750 cells (SEM subtype)): −0.5737
Average Area Under the Viability Curve (AUC), AUC norm value (SNU1967): −0.2574
Average Area Under the Viability Curve (AUC), AUC norm value (SNU1): −0.2152
Average Area Under the Viability Curve (AUC), AUC norm value (SNU216; SNU216 cells (non-SEM subtype)): −0.04999
Average Area Under the Viability Curve (AUC), AUC norm value (SNU484; SNU484 cells (SEM subtype)): 1.041
Average Area Under the Viability Curve (AUC), AUC norm value (SNU601): 2.84
Average Area Under the Viability Curve (AUC), AUC norm value (SNU620): 0.08594
Average Area Under the Viability Curve (AUC), AUC norm value (SNU638): −0.4313
Average Area Under the Viability Curve (AUC), AUC norm value (SNU668; SNU668 cells (SEM subtype)): 0.4303
Average Area Under the Viability Curve (AUC), AUC norm value (SNU719): 1.843
Average Area Under the Viability Curve (AUC), AUC norm value (YCC11; YCC11 cells (SEM subtype)): −0.2285
Average Area Under the Viability Curve (AUC), AUC norm value (YCC2): 0.09328
Average Area Under the Viability Curve (AUC), AUC norm value (YCC3): 1.034
Average Area Under the Viability Curve (AUC), AUC norm value (FU97): 0.2975
